# Results as given in patent publication US10576062B2, “Carbamoyloxymethyl triazole cyclohexyl acids as LPA antagonists” (Bristol-Myers Squibb Company, priority 2016, dated 2020).
# Biological target: T1, human LPA1 (Homo sapiens, UniProt Q92633)
# T1 construct: expressed in transfected cells; host or cells: Chinese hamster ovary (CHO) cells
# Experiment: LPA1 functional antagonist assay (LPA-induced calcium flux)
# Type: cell-based
# Details: CHO cells overexpressing human LPA1; inhibition of calcium flux induced by 10 nM LPA; read-out: hLPA1 IC50
# Description: The effectiveness of compounds of the present invention as LPA1 inhibitors can be determined in an LPA1 functional antagonist assay as follows: Chinese hamster ovary cells overexpressing human LPA1 were plated overnight (15,000 cells/well) in poly-D-lysine coated 384-well microplates (Greiner bio-one, Cat #781946) in DMEM/F12 medium (Gibco, Cat #11039). Following overnight culture, cells were loaded with calcium indicator dye (AAT Bioquest Inc, Cat #34601) for 30 minutes at 37° C. The cells were then equilibrated to room temperature for 30 minutes before the assay. Test compounds solubilized in DMSO were transferred to 384 well non-binding surface plates (Corning, Cat #3575) using the Labcyte Echo acoustic dispense and diluted with assay buffer [1×HBSS with calcium/magnesium (Gibco Cat #14025-092), 20 mM HEPES (Gibco Cat #15630-080) and 0.1% fatty acid free BSA (Sigma Cat #A9205)] to a final concentration of 0.5% DMSO. Diluted compounds were added to the cells by FDSS6000 (Hamamatsu) at final concentrations ranging from 0.08 nM to 5 μM. and were then incubated for 20 min at room temperature at which time LPA (Avanti Polar Lipids Cat #857130C) was added at final concentrations of 10 nM to stimulate the cells. […] IC50 values were determined by fitting data to a 4-parameter logistic equation (GraphPad Prism, San Diego Calif.).
# T1 sequence (Q92633 whole entry): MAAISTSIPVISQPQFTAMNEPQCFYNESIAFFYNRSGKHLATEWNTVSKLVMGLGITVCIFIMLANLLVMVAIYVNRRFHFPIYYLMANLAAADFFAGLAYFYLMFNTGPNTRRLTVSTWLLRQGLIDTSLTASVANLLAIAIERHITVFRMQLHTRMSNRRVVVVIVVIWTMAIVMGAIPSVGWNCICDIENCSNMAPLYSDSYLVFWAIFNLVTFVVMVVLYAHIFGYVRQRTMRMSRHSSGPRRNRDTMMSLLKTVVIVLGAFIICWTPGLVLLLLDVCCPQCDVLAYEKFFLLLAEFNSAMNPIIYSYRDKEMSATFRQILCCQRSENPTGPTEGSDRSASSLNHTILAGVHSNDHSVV
row,SMILES,IC50 [nM]
1,"Cc1nc(-c2nnn(C)c2COC(=O)N(C)C[C@H]2C[C@@H]2C)ccc1O[C@H]1CCCC(C(=O)O)C1 (stereo in doubt) [Example 258, (1R,3 S)-3-((2-methyl-6-(1-methyl-5-(((methyl(((1S,2S)-2-methylcyclopropyl)methyl)carbamoyl)oxy)methyl)-1H-1,2,3-triazol-4-yl)pyridin-3-yl)oxy)cyclohexane-1-carboxylic Acid]",19
2,"CN(C(=O)OCc1c(-c2ccc(O[C@H]3CCC[C@H](C(=O)O)C3)cn2)nnn1C)C1CCCC1 [Example 2, (1S,3S)-3-((6-(5-(((cyclopentyl(methyl)carbamoyl)oxy)methyl)-1-methyl-1H-1,2,3-triazol-4-yl)pyridin-3-yl)oxy)cyclohexane-1-carboxylic Acid]",19
3,"CN(CCC1CC1)C(=O)OCc1c(-c2ccc(O[C@H]3CCC[C@H](C(=O)O)C3)cn2)nnn1C [Example 3, (1S,3S)-3-((6-(5-((((2-cyclopropylethyl)(methyl)carbamoyl)oxy)methyl)-1-methyl-1H-1,2,3-triazol-4-yl)pyridin-3-yl)oxy)cyclohexane-1-carboxylic Acid]",19
4,"CN(C(=O)OCc1c(-c2ccc(O[C@H]3CCC[C@H](C(=O)NS(C)(=O)=O)C3)cc2)nnn1C)C1CCCC1 [Example 7, (1-Methyl-4-(4-(((1S,3S)-3-((methylsulfonyl)carbamoyl)cyclohexyl)oxy)phenyl)-1H-1,2,3-triazol-5-yl)methyl cyclopentyl(methyl)carbamate]",3750
5,"CCCC(C)(C)N(C)C(=O)OCc1c(-c2ccc(O[C@H]3CCC[C@H](C(=O)O)C3)cc2)nnn1C [Example 10, (1S,3S)-3-(4-(1-Methyl-5-(((methyl(2-methylpentan-2-yl)carbamoyl)oxy)methyl)-1H-1,2,3-triazol-4-yl)phenoxy)cyclohexanecarboxylic Acid]",23
6,"Cc1nc(-c2nnn(C)c2COC(=O)N(C)CC2CCC2)ccc1O[C@H]1CCC[C@H](C(N)=O)C1 [Example 14, (4-(5-(((1S,3S)-3-carbamoylcyclohexyl)oxy)-6-methylpyridin-2-yl)-1-methyl-1H-1,2,3-triazol-5-yl)methyl (cyclobutylmethyl)(methyl)carbamate]",824
7,"Cc1nc(-c2nnn(C)c2COC(=O)N(C)CC2CCC2)ccc1O[C@H]1CCC[C@H](C#N)C1 [Example 15, (4-(5-(((1S,3S)-3-cyanocyclohexyl)oxy)-6-methylpyridin-2-yl)-1-methyl-1H-1,2,3-triazol-5-yl)methyl (cyclobutylmethyl)(methyl)carbamate]",3750
8,"Cc1nc(-c2nnn(C)c2COC(=O)N(C)CC2CCC2)ccc1O[C@H]1CCC[C@H](c2nnn[nH]2)C1 [Example 16, (4-(5-(((1S,3 S)-3-(1H-tetrazol-5-yl)cyclohexyl)oxy)-6-methylpyridin-2-yl)-1-methyl-1H-1,2,3-triazol-5-yl)methyl (cyclobutylmethyl)(methyl)carbamate]",22
9,"Cc1nc(-c2nnn(C)c2COC(=O)N(C)CC2CCC2)ccc1O[C@H]1CCC[C@H](C(=O)NS(C)(=O)=O)C1 [Example 17, (1-methyl-4-(6-methyl-5-(((1S,3S)-3-((methylsulfonyl)carbamoyl)cyclohexyl)oxy)pyridin-2-yl)-1H-1,2,3-triazol-5-yl)methyl (cyclobutylmethyl)(methyl)carbamate]",352

# Same assay, conditions: human LPA1; read-out: hLPA1 IC50
row,SMILES,IC50 [nM]
1,"Cc1nc(-c2nnn(C)c2COC(=O)N(C)C2CC3(CCC3)C2)ccc1O[C@H]1CCCC(C(=O)O)C1 (stereo in doubt) [Example 158, (1R,3S)-3-((2-methyl-6-(1-methyl-5-(((methyl(spiro[3.3]heptan-2-yl)carbamoyl)oxy)methyl)-1H-1,2,3-triazol-4-yl)pyridin-3-yl)oxy)cyclohexane-1-carboxylic acid]",32

# Same assay, conditions: read-out: hLPA1 IC50
row,SMILES,IC50 [nM]
1,"CC(C1CCC1)N(C)C(=O)OCc1c(-c2ccc(O[C@H]3CCC[C@H](C(=O)O)C3)cc2)nnn1C (single isomer, unassigned) [Example 48]",8
2,"CC(C1CCC1)N(C)C(=O)OCc1c(-c2ccc(O[C@H]3CCC[C@H](C(=O)O)C3)cc2)nnn1C (single isomer, unassigned) [Example 49]",14
3,"CC(C1CCC1)N(C)C(=O)OCc1c(-c2ccc(O[C@H]3CCC[C@H](C(=O)O)C3)cc2)nnn1C (single isomer, unassigned) [Example 67, trans-3-(4-(5-((((1-cyclobutylethyl)(methyl)carbamoyl)oxy)methyl)-1-methyl-1H-1,2,3-triazol-4-yl)phenoxy)cyclohexane-1-carboxylic acid]",109
4,"Cc1nc(-c2nnn(C)c2COC(=O)N(C)C2(C)CC(C)C2)ccc1O[C@H]1CCC[C@H](C(=O)O)C1 (single isomer, unassigned) [Example 106]",67
5,"Cc1nc(-c2nnn(C)c2COC(=O)N(C)C2(C)CC(C)C2)ccc1O[C@H]1CCC[C@H](C(=O)O)C1 (single isomer, unassigned) [Example 107]",70
6,"Cc1nc(-c2nnn(C)c2COC(=O)N(C)[C@H](C)c2ccccc2)ccc1O[C@H]1CCC[C@H](C(=O)O)C1 [Example 19, (1S,3S)-3-((2-methyl-6-(1-methyl-5-(((methyl((R)-1-phenylethyl)carbamoyl)oxy)methyl)-1H-1,2,3-triazol-4-yl)pyridin-3-yl)oxy)cyclohexane-1-carboxylic acid]",17
7,"C[C@H](c1ccccc1)N(C)C(=O)OCc1c(-c2ccc(O[C@H]3CCC[C@H](C(=O)O)C3)cn2)nnn1C [Example 21, (1S,3S)-3-((6-(1-methyl-5-(((methyl((R)-1-phenylethyl)carbamoyl)oxy)methyl)-1H-1,2,3-triazol-4-yl)pyridin-3-yl)oxy)cyclohexane-1-carboxylic acid]",21
8,"CN(Cc1ccccc1)C(=O)OCc1c(-c2ccc(O[C@H]3CCC[C@H](C(=O)O)C3)cn2)nnn1C [Example 22, (1S,3S)-3-((6-(5-(((benzyl(methyl)carbamoyl)oxy)methyl)-1-methyl-1H-1,2,3-triazol-4-yl)pyridin-3-yl)oxy)cyclohexane-1-carboxylic acid]",18
9,"CN(CC1CCC1)C(=O)OCc1c(-c2ccc(O[C@H]3CCC[C@H](C(=O)O)C3)cn2)nnn1C [Example 23, (1S,3S)-3-((6-(5-((((cyclobutylmethyl)(methyl)carbamoyl)oxy)methyl)-1-methyl-1H-1,2,3-triazol-4-yl)pyridin-3-yl)oxy)cyclohexane-1-carboxylic acid]",12
10,"C[C@H](C1CC1)N(C)C(=O)OCc1c(-c2ccc(O[C@H]3CCC[C@H](C(=O)O)C3)cn2)nnn1C [Example 25, (1S,3S)-3-((6-(5-(((((R)-1-cyclopropylethyl)(methyl)carbamoyl)oxy)methyl)-1-methyl-1H-1,2,3-triazol-4-yl)pyridin-3-yl)oxy)cyclohexane-1-carboxylic acid]",20
11,"CN(Cc1ccccc1)C(=O)OCc1c(-c2ccc(O[C@H]3CCC[C@H](C(=O)O)C3)c(F)c2)nnn1C [Example 26, (1S,3S)-3-(4-(5-(((benzyl(methyl)carbamoyl)oxy)methyl)-1-methyl-1H-1,2,3-triazol-4-yl)-2-fluorophenoxy)cyclohexane-1-carboxylic acid]",34
